Assay results published in patent US20240002365A1, “PYRIDAZINE AND 1,2,4-TRIAZINE DERIVATIVES AS FGFR KINASE INHIBITORS” (BETA PHARMA, INC., priority 2020, published 2024).

Molecular target: FGFR1 (Homo sapiens (Human), UniProt P11362)
Experiment: RBC NanoBRET Assay for Target Engagement in HEK293 cells transfected with FGFR1-NanoLuc Fusion vector
Format: cell-based
Details: 1 hour, tracer K5 1 μM
Description: Cellular Assay. The RBC NanoBRET Assay for Target Engagement was performed by Reaction Biology Corporation, 1 Great Valley Parkway, Suite 2 Malvern, PA 19355, USA. The assay was conducted in HEK293 cells transiently transfected with FGFR1-NanoLuc Fusion vector. The HEK293 cells (ATCC) were transfected with 1 μg of FGFR1-NanoLuc Fusion vector in 384-well format and the transfected cells were subsequently treated with the test compounds (starting at 10 μM, 10-dose with 3-fold dilution) for 1 hour using CTx-0294885 as the reference standard and K5 (1 μM) was used as the tracer. FGFR1 target engagement was measured and the curve fits were performed only when % NanoBret signal at the highest concentration of compounds was less than 55%.

Chain of FGFR1 (P11362 22-822): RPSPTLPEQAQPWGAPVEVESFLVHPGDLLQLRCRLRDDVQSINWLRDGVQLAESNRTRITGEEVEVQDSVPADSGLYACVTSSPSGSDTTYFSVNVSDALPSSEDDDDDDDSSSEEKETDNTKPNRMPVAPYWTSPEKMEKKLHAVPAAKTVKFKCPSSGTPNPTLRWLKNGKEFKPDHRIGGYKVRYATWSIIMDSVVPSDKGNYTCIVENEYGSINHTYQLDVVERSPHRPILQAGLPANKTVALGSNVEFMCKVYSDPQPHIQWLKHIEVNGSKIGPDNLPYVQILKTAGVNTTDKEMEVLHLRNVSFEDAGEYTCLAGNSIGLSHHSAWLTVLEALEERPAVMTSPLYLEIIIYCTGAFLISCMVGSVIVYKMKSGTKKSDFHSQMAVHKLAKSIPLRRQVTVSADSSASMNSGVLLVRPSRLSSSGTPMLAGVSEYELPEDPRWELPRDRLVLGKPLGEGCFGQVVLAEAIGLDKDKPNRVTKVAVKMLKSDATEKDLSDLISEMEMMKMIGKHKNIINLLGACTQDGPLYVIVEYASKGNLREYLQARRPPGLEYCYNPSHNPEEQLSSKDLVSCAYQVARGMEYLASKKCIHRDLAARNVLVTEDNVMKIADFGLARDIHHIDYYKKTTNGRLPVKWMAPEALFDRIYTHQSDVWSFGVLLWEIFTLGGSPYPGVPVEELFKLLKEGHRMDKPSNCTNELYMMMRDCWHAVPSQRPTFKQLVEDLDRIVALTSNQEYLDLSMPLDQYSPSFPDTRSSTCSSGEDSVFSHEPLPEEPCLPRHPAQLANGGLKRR

## CNC(=O)c1ccccc1Nc1nc(Nc2ccc(N3CCNCC3)cc2)ncc1Cl [CTx-0294885, reference compound]
  IC50: 35 nM
